Experimental data: patent US20050282743A1, “Molecular interactions in cells” (Arbor Vita Corporation, priority 2001, published 2005)
Structures can show the parent of a compound that is named as a salt.

Biological target: T1, ZO-2 (1/3) : DNAM (22L) (Homo sapiens, UniProt Q9UDY2)
T1 construct: made in house; host or cells: E. coli (DH5α, BL21 or JM109)
T1 sequence (Q9UDY2 27-122): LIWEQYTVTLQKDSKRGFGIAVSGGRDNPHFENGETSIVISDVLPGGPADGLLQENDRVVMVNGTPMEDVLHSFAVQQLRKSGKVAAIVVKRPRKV
Assay: G assay with FDA approved drug (Example 7, TABLE 10B)
Type: binding
Description: For certain of the PDZ proteins and PL proteins shown to bind together and for which Kd values had been obtained, additional testing was conducted to determine whether certain pharmaceutical compounds would act to antagonize or agonize the interactions. Assays were conducted as for the G′ assay described supra both in the presence and absence of test compound, except that 50 ul of a 10 uM solution of the biotinylated PL peptide is allowed to react with the surface bearing the PDZ-domain polypeptide instead of a 20 uM solution as specified in step (2) of the assay.
In both tables, the first column (left to right) entitled “PDZ domain” lists the gene name of GST-PDZ domain fusion (see TABLE 9). Entries having two numbers separated by a slash indicate which PDZ domain was utilized. For example, in TABLE 10A, the entry for ZO-3 is 1/3. This means that PDZ domain 1 of 3 was used.
The second column labeled “PL” indicates the name of the PDZ ligand (see TABLES 10A and 10B) interacting with the PDZ domain. The third column entitled “Drug” lists the common or trade name of pharmaceutical compound tested and found to modulate the specific PDZ-PL interaction (suppliers and chemical information are listed in TABLE 11). The final column with the heading “Change in OD” indicates the change in absorbance at 450 nm of the assay in the absence (first number) or presence (second number) of chemical compound.
Many FDA approved drugs have unknown mechanism of function. It is quite possible that some of these drugs function by disrupting or increasing PDZ/PL interactions. This possibility was examined by using the ‘G Assay’ (Example 3 section D). FDA approved drugs were incubated in the presence of the labeled peptide and compared to the same interaction without drug to determine if there was an effect on specific PDZ:PL interactions (drugs added with peptide at step 9 in Example 3D). The primary focus of this experiment was on drugs involved in treatment of depression (amitriptyline, desipramine, trimipramine, benztropine, and nortryptilline) and epilepsy (valproic acid). No modes of action are known for these drugs.
Therapeutic dose was determined by guidelines given in the Physician's Desk Reference and in the assay, 200 times this amount was used. If a dosage range was given, the upper end of the range was used. Each interaction listed in TABLES 10A & B was tested in the ‘G Assay’ (see Example 3) against each of the drugs listed in TABLE 11. The concentration of GST-fusion protein and peptide used in the assay represent the Kd and were determined by titration. These values can be found in TABLE 7. The drugs were added to the peptide before addition to the well containing the PDZ protein. Otherwise, the assay was carried out as described and read at 450 nm after 30 minutes of developing. For the sequences of the PDZs and PLs used in these tests, see TABLES 8 & 9.
List of interactions and therapeutics for which a modulation of binding was observed. Concentrations at which the GST-PDZ fusion protein and labeled peptide were used can be found in Table 7 or Table 12.

With `CNCCC=C1c2ccccc2CCc2ccccc21` [Nortryptilline, NORTRIPTYLINE HYDROCHLORIDE] the “CHANGE IN OD: absorbance at 450 nm in presence of drug” value (OD in absence of drug 2.1, drug concentration per TABLE 11, read after 30 minutes) was 2.1 to 0.5 and the “antagonistic effect, binding relative to absence of drug” value (ZO-2 domain 1 and DNAM-1) was 4.2 fold.
